In ChEMBL document CHEMBL1122712, “[(E)-1-[123I]Iodo-1-penten-5-yl]triphenylphosphonium iodide: convenient preparation of a potentially useful myocardial perfusion agent” (J Med Chem, 1984):
“And” between values parts separate entries of the source, which are not always exact repeats. Equal entries are not always repeated.

Key:
Assay type in all cases: ADME, organism-based
Rattus norvegicus [1] = test: Distribution of radioactivity in the female heart rat tissues after intravenous administration after 3 days was determined; settings: in vivo, 72 h
Rattus norvegicus [2] = test: Distribution of radioactivity in the female liver rat tissues after intravenous administration after 30 min was determined; settings: in vivo, 0.5 h
Rattus norvegicus [3] = test: Distribution of radioactivity in the female rat blood tissues after intravenous administration after 1 day was determined; settings: in vivo, 24 h
Rattus norvegicus [4] = test: Distribution of radioactivity in the female rat blood tissues after intravenous administration after 30 min was determined; settings: in vivo, 0.5 h
Rattus norvegicus [5] = test: Distribution of radioactivity in the female rat blood tissues after intravenous administration after 3 days was determined; settings: in vivo, 72 h
Rattus norvegicus [6] = test: Distribution of radioactivity in the female rat blood tissues after intravenous administration after 3h was determined; settings: in vivo
Rattus norvegicus [7] = test: Distribution of radioactivity in the female rat blood tissues after intravenous administration after 5 min was determined; settings: in vivo
Rattus norvegicus [8] = test: Distribution of radioactivity in the female rat liver tissues after intravenous administration after 30 min was determined; settings: in vivo, 0.5 h
Rattus norvegicus [9] = test: Distribution of radioactivity in the female rat liver tissues after intravenous administration after 3 days was determined; settings: in vivo, 72 h
Rattus norvegicus [10] = test: Distribution of radioactivity in the female rat liver tissues after intravenous administration after 3h was determined; settings: in vivo
Rattus norvegicus [11] = test: Distribution of radioactivity in the female rat liver tissues after intravenous administration after 60 min was determined; settings: in vivo, 1 h
Rattus norvegicus [12] = test: Distribution of radioactivity in the female rat lung tissues after intravenous administration after 1 day was determined; settings: in vivo, 24 h
Rattus norvegicus [13] = test: Distribution of radioactivity in the female rat lung tissues after intravenous administration after 30 min was determined; settings: in vivo, 0.5 h
Rattus norvegicus [14] = test: Distribution of radioactivity in the female rat lung tissues after intravenous administration after 3 days was determined; settings: in vivo, 72 h
Rattus norvegicus [15] = test: Distribution of radioactivity in the female rat lung tissues after intravenous administration after 3h was determined; settings: in vivo
Rattus norvegicus [16] = test: Distribution of radioactivity in the female rat lung tissues after intravenous administration after 60 min was determined; settings: in vivo, 1 h
Rattus norvegicus [17] = test: Distribution of radioactivity in the female rat kidney tissues after intravenous administration after 30 min was determined; settings: in vivo, 0.5 h
Rattus norvegicus [18] = test: Distribution of radioactivity in the female rat kidney tissues after intravenous administration after 3 days was determined; settings: in vivo, 72 h
Rattus norvegicus [19] = test: Distribution of radioactivity in the female rat kidney tissues after intravenous administration after 3h was determined; settings: in vivo
Rattus norvegicus [20] = test: Distribution of radioactivity in the female rat kidney tissues after intravenous administration after 5 min was determined; settings: in vivo
Rattus norvegicus [21] = test: Distribution of radioactivity in the female rat kidney tissues after intravenous administration after 60 min was determined; settings: in vivo, 1 h
Rattus norvegicus [22] = test: Distribution of radioactivity in the female rat liver tissues after intravenous administration after 1 day was determined; settings: in vivo, 24 h
Rattus norvegicus [23] = test: Distribution of radioactivity in the female rat blood tissues after intravenous administration after 60 min was determined; settings: in vivo, 1 h
Rattus norvegicus [24] = test: Distribution of radioactivity in the female rat heart tissues after intravenous administration after 1 day was determined; settings: in vivo, 24 h
Rattus norvegicus [25] = test: Distribution of radioactivity in the female rat heart tissues after intravenous administration after 30 min was determined; settings: in vivo, 0.5 h
Rattus norvegicus [26] = test: Distribution of radioactivity in the female rat heart tissues after intravenous administration after 3 days was determined; settings: in vivo, 72 h
Rattus norvegicus [27] = test: Distribution of radioactivity in the female rat heart tissues after intravenous administration after 3h was determined; settings: in vivo
Rattus norvegicus [28] = test: Distribution of radioactivity in the female rat heart tissues after intravenous administration after 5 min was determined; settings: in vivo
Rattus norvegicus [29] = test: Distribution of radioactivity in the female rat heart tissues after intravenous administration after 60 min was determined; settings: in vivo, 1 h
Rattus norvegicus [30] = test: Distribution of radioactivity in the female rat kidney tissues after intravenous administration after 1 day was determined; settings: in vivo, 24 h
Rattus norvegicus [31] = test: Distribution of radioactivity in the female rat lung tissues after intravenous administration after 5 min was determined; settings: in vivo

For `I/C=C/CCC[P+](c1ccccc1)(c1ccccc1)c1ccccc1.[I-]`, the Activity (Rattus norvegicus [1]) was 0.64%, the Activity (Rattus norvegicus [2]) was 5.59% and the Activity (Rattus norvegicus [3]) was 0.2% and 0.01%. For the same compound, the Activity (Rattus norvegicus [4]) was 1.59% and 0.15%, the Activity (Rattus norvegicus [5]) was 0.093% and 0.009% and the Activity (Rattus norvegicus [6]) was 0.96% and 0.08%. The Activity (Rattus norvegicus [7]) was 1.58% and 0.14%, the Activity (Rattus norvegicus [8]) was 0.75% and the Activity (Rattus norvegicus [9]) was 0.13% and 0.019%. The Activity (Rattus norvegicus [10]) was 0.74% and 0.09%, the Activity (Rattus norvegicus [11]) was 2.64% and 0.25% and the Activity (Rattus norvegicus [12]) was 0.19% and 0.17%. For the same compound, the Activity (Rattus norvegicus [13]) was 0.79% and 0.64%, the Activity (Rattus norvegicus [14]) was 0.102% and 0.91% and the Activity (Rattus norvegicus [15]) was 0.61% and 0.49%. The Activity (Rattus norvegicus [16]) was 0.75% and 0.65%, the Activity (Rattus norvegicus [17]) was 13.11% and 8.91% and the Activity (Rattus norvegicus [18]) was 0.22% and 0.15%. For the same compound, the Activity (Rattus norvegicus [19]) was 4.38% and 2.75%, the Activity (Rattus norvegicus [20]) was 13.72% and 7.08% and the Activity (Rattus norvegicus [21]) was 7.95% and 5.06%. The Activity (Rattus norvegicus [22]) was 0.18% and 0.02%, the Activity (Rattus norvegicus [23]) was 1.14% and 0.11% and the Activity (Rattus norvegicus [24]) was 1.18% and 1.58%. For the same compound, the Activity (Rattus norvegicus [25]) was 1.6% and 2.31%, the Activity (Rattus norvegicus [26]) was 1% and the Activity (Rattus norvegicus [27]) was 1.54% and 2.21%. For the same compound, the Activity (Rattus norvegicus [28]) was 1.49% and 2.38%, the Activity (Rattus norvegicus [29]) was 1.83% and 2.59% and the Activity (Rattus norvegicus [30]) was 0.79% and 0.46%. The Activity (Rattus norvegicus [31]) was 0.89% and 0.75%.
